Measured values from PMC6472001, “Phenolic Compounds from Humulus lupulus as Natural Antimicrobial Products: New Weapons in the Fight against Methicillin Resistant Staphylococcus aureus, Leishmania mexicana and Trypanosoma brucei Strains” (Molecules, 2019).

How the values were obtained:
Type in all cases: cell-based
[1] = test system: Acinetobacter baumannii 9011; assay: First screening, agar dilution MIC
Procedure: (§1) Clinical bacterial isolates from human samples collected in Lille (France) and some collection strains were used. The first screening step on pathogenic bacteria was carried out with crude hydro-alcoholic extracts of different hop parts (Table 1). The second screening was performed using sub-extracts of cones on Gram-positive bacteria, including methicillin-sensitive Staphylococcus aureus (MSSA) and methicillin-resistant Staphylococcus aureus […] (Table 2). These tests were carried out on Petri dishes, Mueller-Hinton Agar (MHA) (Oxoid, UK) was mixed with the plant extract solution in MeOH at 5% (solvent control: 5% MeOH). Final extract concentrations in Petri dishes ranged from 1250 to 4.9 µg/mL. A multi-headed inoculator allowed spotting bacterial strains at 10^5 CFU/mL in cysteinated Ringer (CR) solution (Merck®, France). Minimal Inhibitory Concentrations (MICs) were visually determined after 24 h of incubation at 37 °C.

[2] = test system: Staphylococcus aureus 8147; assay: First screening, agar dilution MIC
Procedure: as §1

[3] = test system: Streptococcus dysgalactiae T46C14; assay: First screening, agar dilution MIC
Procedure: as §1

[4] = test system: Streptococcus agalactiae T53C2; assay: First screening, agar dilution MIC
Procedure: as §1

[5] = test system: Citrobacter freundii 11041; assay: First screening, agar dilution MIC
Procedure: as §1

[6] = test system: Enterobacter cloacae 11051; assay: First screening, agar dilution MIC
Procedure: as §1

Corynebacterium T25-17 [7] = assay: First screening, agar dilution MIC
Procedure: as §1

[8] = test system: Enterobacter cloacae 11053; assay: First screening, agar dilution MIC
Procedure: as §1

Salmonella sp. 11033 = assay: First screening, agar dilution MIC
Procedure: as §1

[9] = test system: Stenotrophomonas maltophilia; assay: First screening, agar dilution MIC
Procedure: as §1

Proteus mirabilis 11060 = assay: First screening, agar dilution MIC
Procedure: as §1

[10] = test system: Providencia stuartii 11038; assay: First screening, agar dilution MIC
Procedure: as §1

[11] = test system: Enterobacter cloacae 11050; assay: First screening, agar dilution MIC
Procedure: as §1

[12] = test system: Enterococcus faecalis C159-6; assay: First screening, agar dilution MIC
Procedure: as §1

[13] = test system: Klebsiella pneumoniae 11016; assay: First screening, agar dilution MIC
Procedure: as §1

[14] = test system: Escherichia coli ATCC 25922; assay: First screening, agar dilution MIC
Procedure: as §1

[15] = test system: Pseudomonas aeruginosa ATCC 27583; assay: First screening, agar dilution MIC
Procedure: as §1

Escherichia coli 8138 = assay: First screening, agar dilution MIC
Procedure: as §1

[16] = test system: Serratia marcescens 11056; assay: First screening, agar dilution MIC
Procedure: as §1

[17] = test system: Serratia marcescens 11057; assay: First screening, agar dilution MIC
Procedure: as §1

[18] = test system: Staphylococcus epidermidis 5001; assay: First screening, agar dilution MIC
Procedure: as §1

[19] = test system: Klebsiella pneumoniae 11017; assay: First screening, agar dilution MIC
Procedure: as §1

Enterococcus sp. 8153 = assay: First screening, agar dilution MIC
Procedure: as §1

[20] = test system: Staphylococcus warneri T12A12; assay: First screening, agar dilution MIC
Procedure: as §1

[21] = test system: Streptococcus agalactiae T25-7; assay: First screening, agar dilution MIC
Procedure: as §1

[22] = test system: Staphylococcus lugdunensis T26A3; assay: First screening, agar dilution MIC
Procedure: as §1

[23] = test system: Pseudomonas aeruginosa 8131; assay: First screening, agar dilution MIC
Procedure: as §1

[24] = test system: Acinetobacter baumannii 9010; assay: First screening, agar dilution MIC
Procedure: as §1

Escherichia coli 8157 = assay: First screening, agar dilution MIC
Procedure: as §1

[25] = test system: Mycobacterium smegmatis 5003; assay: First screening, agar dilution MIC
Procedure: as §1

[26] = test system: Staphylococcus aureus 8146; assay: First screening, agar dilution MIC
Procedure: as §1

[27] = test system: Staphylococcus epidermidis 10282; assay: First screening, agar dilution MIC
Procedure: as §1

[28] = test system: Citrobacter freundii 11042; assay: First screening, agar dilution MIC
Procedure: as §1

[29] = test system: Streptococcus agalactiae T40A2; assay: Second screening, agar dilution MIC
Procedure: as §1

[30] = test system: Staphylococcus aureus T1.1; assay: Second screening, agar dilution MIC
Procedure: as §1

[31] = test system: Staphylococcus aureus 8147; assay: Second screening, agar dilution MIC; details: Table 2
Procedure: as §1

[32] = test system: Streptococcus agalactiae T25.7; assay: Second screening, agar dilution MIC
Procedure: as §1

[33] = test system: Enterococcus faecalis T39-C11; assay: Second screening, agar dilution MIC
Procedure: as §1

Corynebacterium T25-17 [34] = assay: Second screening, agar dilution MIC; details: Table 2
Procedure: as §1

[35] = test system: Streptococcus agalactiae 13225; assay: Second screening, agar dilution MIC
Procedure: as §1

[36] = test system: Staphylococcus aureus T6.7; assay: Second screening, agar dilution MIC
Procedure: as §1

[37] = test system: Staphylococcus aureus T25.10; assay: Second screening, agar dilution MIC
Procedure: as §1

[38] = test system: Enterococcus faecalis T37A4; assay: Second screening, agar dilution MIC
Procedure: as §1

[39] = test system: Enterococcus faecalis T26-B7; assay: Second screening, agar dilution MIC
Procedure: as §1

[40] = test system: Staphylococcus epidermidis 5001; assay: Second screening, agar dilution MIC; details: Table 2
Procedure: as §1

[41] = test system: Staphylococcus saprophyticus 08237; assay: Second screening, agar dilution MIC
Procedure: as §1

[42] = test system: Streptococcus agalactiae 13226; assay: Second screening, agar dilution MIC
Procedure: as §1

[43] = test system: Staphylococcus aureus T36B1; assay: Second screening, agar dilution MIC
Procedure: as §1

[44] = test system: Staphylococcus pettenkoferi T3.3; assay: Second screening, agar dilution MIC
Procedure: as §1

[45] = test system: Staphylococcus aureus T25.3; assay: Second screening, agar dilution MIC
Procedure: as §1

[46] = test system: Staphylococcus aureus T28.1; assay: Second screening, agar dilution MIC
Procedure: as §1

[47] = test system: Staphylococcus aureus T47A12; assay: Second screening, agar dilution MIC
Procedure: as §1

[48] = test system: Staphylococcus lugdunensis T26A3; assay: Second screening, agar dilution MIC; details: Table 2
Procedure: as §1

[49] = test system: Enterococcus faecalis T34-2; assay: Second screening, agar dilution MIC
Procedure: as §1

[50] = test system: Staphylococcus aureus CIP 224; assay: Second screening, agar dilution MIC
Procedure: as §1

[51] = test system: Staphylococcus aureus T25.9; assay: Second screening, agar dilution MIC
Procedure: as §1

[52] = test system: Staphylococcus aureus T26A4; assay: Second screening, agar dilution MIC
Procedure: as §1

[53] = test system: Streptococcus agalactiae T38.2; assay: Second screening, agar dilution MIC
Procedure: as §1

CC1(C)S[C@@H]2[C@H](NC(=O)[C@H](N)c3ccc(O)cc3)C(=O)N2[C@H]1C(=O)O [AMX, Amoxicillin]
Susceptibility to AMX [1]: R (R > 16) | Susceptibility to AMX [2]: S (Amoxicillin (AMX) S ≤ 4) | Susceptibility to AMX [3]: S (Amoxicillin (AMX) S ≤ 4) | Susceptibility to AMX [4]: S (Amoxicillin (AMX) S ≤ 4) | Susceptibility to AMX [5]: S (Amoxicillin (AMX) S ≤ 4) | Susceptibility to AMX [6]: R (R > 16) | Susceptibility to AMX (Corynebacterium T25-17 [7]): S (Amoxicillin (AMX) S ≤ 4) | Susceptibility to AMX [8]: R (R > 16) | Susceptibility to AMX (Salmonella sp. 11033): R (R > 16) | Susceptibility to AMX [9]: R (R > 16) | Susceptibility to AMX (Proteus mirabilis 11060): R (R > 16) | Susceptibility to AMX [10]: S (Amoxicillin (AMX) S ≤ 4) | Susceptibility to AMX [11]: R (R > 16) | Susceptibility to AMX [12]: R (R > 16) | Susceptibility to AMX [13]: R (R > 16) | Susceptibility to AMX [14]: I | Susceptibility to AMX [15]: R (R > 16) | Susceptibility to AMX (Escherichia coli 8138): R (R > 16) | Susceptibility to AMX [16]: R (R > 16) | Susceptibility to AMX [17]: R (R > 16) | Susceptibility to AMX [18]: S (Amoxicillin (AMX) S ≤ 4) | Susceptibility to AMX [19]: R (R > 16) | Susceptibility to AMX (Enterococcus sp. 8153): S (Amoxicillin (AMX) S ≤ 4) | Susceptibility to AMX [20]: S (Amoxicillin (AMX) S ≤ 4) | Susceptibility to AMX [21]: S (Amoxicillin (AMX) S ≤ 4) | Susceptibility to AMX [22]: S (Amoxicillin (AMX) S ≤ 4) | Susceptibility to AMX [23]: R (R > 16) | Susceptibility to AMX [24]: R (R > 16) | Susceptibility to AMX (Escherichia coli 8157): R (R > 16) | Susceptibility to AMX [25]: S (Amoxicillin (AMX) S ≤ 4) | Susceptibility to AMX [26]: I | Susceptibility to AMX [27]: S (Amoxicillin (AMX) S ≤ 4) | Susceptibility to AMX [28]: R (R > 16) | Susceptibility to AMX [29]: S (Amoxicillin (AMX) S ≤ 4) | Susceptibility to AMX [30]: S (Amoxicillin (AMX) S ≤ 4) | Susceptibility to AMX [31]: S (Amoxicillin (AMX) S ≤ 4) | Susceptibility to AMX [32]: S (Amoxicillin (AMX) S ≤ 4) | Susceptibility to AMX [33]: S (Amoxicillin (AMX) S ≤ 4) | Susceptibility to AMX (Corynebacterium T25-17 [34]): S (Amoxicillin (AMX) S ≤ 4) | Susceptibility to AMX [35]: S (Amoxicillin (AMX) S ≤ 4) | Susceptibility to AMX [36]: R (R > 16) | Susceptibility to AMX [37]: R (R > 16) | Susceptibility to AMX [38]: S (Amoxicillin (AMX) S ≤ 4) | Susceptibility to AMX [39]: S (Amoxicillin (AMX) S ≤ 4) | Susceptibility to AMX [40]: S (Amoxicillin (AMX) S ≤ 4) | Susceptibility to AMX [41]: S (Amoxicillin (AMX) S ≤ 4) | Susceptibility to AMX [42]: S (Amoxicillin (AMX) S ≤ 4) | Susceptibility to AMX [43]: R (R > 16) | Susceptibility to AMX [44]: S (Amoxicillin (AMX) S ≤ 4) | Susceptibility to AMX [45]: R (R > 16) | Susceptibility to AMX [46]: R (R > 16) | Susceptibility to AMX [47]: R (R > 16) | Susceptibility to AMX [48]: S (Amoxicillin (AMX) S ≤ 4) | Susceptibility to AMX [49]: S (Amoxicillin (AMX) S ≤ 4) | Susceptibility to AMX [50]: S (Amoxicillin (AMX) S ≤ 4) | Susceptibility to AMX [51]: R (R > 16) | Susceptibility to AMX [52]: S (Amoxicillin (AMX) S ≤ 4) | Susceptibility to AMX [53]: S (Amoxicillin (AMX) S ≤ 4)
